pIC50: −log10 of the molar value. Read-outs that look alike come from different tables or passages of the source.
Tests used:
[1] = system: HT29 cells; assay: Inhibitory effect of compounds on HT29 cell proliferation; assay type: cell-based, Human; conditions: read-out: IC50, inhibitory activity on HT29 cell proliferation
Protocol: (1) Cell plating: First, tumor cells HT29 were cultured in corresponding medium, then digested with trypsin, centrifuged, resuspended, and counted, and the cells were adjusted to an appropriate concentration for plating.
(§1) Co-incubation of the compound of the present disclosure and tumor cells: after the cells adhered to the wall, the medium was removed, and the diluted bioactive molecule (the compound of the present disclosure) was added to the wells of the above plate, and incubated for 72 h.
(§2) In vitro cell viability detection: After the incubation, 50 μL of Cell Counting-Lite™ 2.0 reagent (Vazyme/Novazyme) was added to each well, shaken and mixed well in the dark, reacted for 10 minutes, and then the detection was carried out with a microplate reader (manufacturer: BMG, Model: PHERAStar-FS) for reading. The background RLU was obtained by using cell-free medium (with Cell Counting-Lite™), and the vehicle RLU was obtained by using cell-containing medium (with Cell Counting-Lite™). Cell inhibition rate=1−(sample RLU−background RLU)/(solvent RLU−background RLU)×100%. According to the four-parameter model fitting curve, the half maximal inhibitory concentration (IC50) of the compound was calculated, and the detection results were shown in Table 2.

[2] = system: NCI-N87 cells; assay: Inhibitory effect of compounds on NCI-N87 cell proliferation; assay type: cell-based, Human
Protocol: (1) Cell plating: First, tumor cells NCI-N87 were cultured in corresponding medium, then digested with trypsin, centrifuged, resuspended, and counted, and the cells were adjusted to an appropriate concentration for plating.
as §1
as §2, with “Table 12.” for “Table 2.”

[3] = system: Jeko-1 cells; assay: Inhibitory effect of compounds on Jeko-1 cell proliferation; assay type: cell-based, Human; conditions: read-out: IC50, inhibitory activity on Jeko-1 cell proliferation
Protocol: (1) Cell plating: First, tumor cells Jeko-1 were cultured in corresponding medium, then digested with trypsin, centrifuged, resuspended, and counted, and the cells were adjusted to an appropriate concentration for plating.
as §1
as §2, with “Table 20.” for “Table 2.”

[4] = system: NCI-H358 cells; assay: Inhibitory effect of compounds on NCI-H358 cell proliferation; assay type: cell-based, Human
Protocol: (1) Cell plating: First, tumor cells NCI-H358 were cultured in corresponding medium, then digested with trypsin, centrifuged, resuspended, and counted, and the cells were adjusted to an appropriate concentration for plating.
as §1
as §2, with “Table 10.” for “Table 2.”

[5] = system: SKOV-3 cells; assay: Inhibitory effect of compounds on SKOV-3 cell proliferation; assay type: cell-based, Human; conditions: Homo sapiens, SK-OV-3, 72 h, read-out: IC50, inhibitory activity on SKOV-3 cell proliferation
Protocol: (1) Cell plating: First, tumor cells SKOV-3 were cultured in corresponding medium, then digested with trypsin, centrifuged, resuspended, and counted, and the cells were adjusted to an appropriate concentration for plating.
as §1
as §2, with “Table 8.” for “Table 2.”

[6] = system: MDA-MB-453 cells; assay: Inhibitory effect of compounds on MDA-MB-453 cell proliferation; assay type: cell-based; conditions: MDA-MB-453 human breast cancer cells, 72 h incubation, Cell Counting-Lite 2.0
Protocol: (1) Cell plating: First, tumor cells MDA-MB-453 were cultured in corresponding medium, then digested with trypsin, centrifuged, resuspended, and counted, and the cells were adjusted to an appropriate concentration for plating.
as §1
as §2, with “Table 22.” for “Table 2.”

[7] = system: HCC1806 cells; assay: Inhibitory effect of compounds on HCC1806 cell proliferation; assay type: cell-based, Human
Protocol: (1) Cell plating: First, tumor cells HCC1806 were cultured in corresponding medium, then digested with trypsin, centrifuged, resuspended, and counted, and the cells were adjusted to an appropriate concentration for plating.
as §1
as §2, with “Table 6.” for “Table 2.”

[8] = NCI-N87 human gastric cancer cells, 72 h incubation, Cell Counting-Lite 2.0, read-out: IC50, inhibitory activity on NCI-N87 cell proliferation
[9] = Jeko-1 human mantle cell lymphoma cells, 72 h incubation, Cell Counting-Lite 2.0
[10] = Homo sapiens, NCI-H358, 72 h, read-out: IC50, inhibitory activity on NCI-H358 cell proliferation, NCI-H358 human non-small cell lung cancer cells, 72 h incubation, Cell Counting-Lite 2.0
[11] = NCI-H358 human non-small cell lung cancer cells, 72 h incubation, Cell Counting-Lite 2.0, read-out: IC50, inhibitory activity on NCI-H358 cell proliferation
[12] = HCC1806 human breast squamous carcinoma cells, 72 h incubation, Cell Counting-Lite 2.0, read-out: IC50, inhibitory activity on HCC1806 cell proliferation
[13] = Homo sapiens, NCI-N87, 72 h, read-out: IC50, inhibitory activity on NCI-N87 cell proliferation, NCI-N87 human gastric cancer cells, 72 h incubation, Cell Counting-Lite 2.0

| Structure (SMILES) | pIC50 [2, 8] | pIC50 [4, 11] | pIC50 [6] | pIC50 [7, 12] | other results |
| --- | --- | --- | --- | --- | --- |
| CC[C@@]1(O)C(=O)OCc2c1cc1n(c2=O)Cc2c-1nc1cc(F)c(Cl)c3c1c2[C@H](NC(=O)CO)CC3 [Example 9 (3-4-B), N-((1R,9S)-4-Chloro-9-ethyl-5-fluoro-9-hydroxy-10,13-dioxo-2,3,9,10,13,15-hexahydro-1H, 12H-benzo[de]pyrano[3′,4:6,7]indolizino[1,2-b]quinolin-1-yl)-2-hydroxyacetamide] | 8.19 |  |  |  | pIC50 ([1]; HT29 human colon cancer cells, 72 h incubation, Cell Counting-Lite 2.0): 8.30; pIC50 [3, 9]: 9.82 |
| CC[C@@]1(O)C(=O)OCc2c1cc1n(c2=O)Cc2c-1nc1cc3c(cc1c2CCNC1CC1)OCO3 [Example 21 (4-14), (S)-14-(2-(Cyclopropylamino)ethyl)-7-ethyl-7-hydroxy-7H-[1,3]dioxolano[4,5-g]pyrano[3′,4′:6,7]indolizino[1,2-b]quinolin-8,11 (10H,13H)-dione] |  |  |  |  | pIC50 ([1]; Homo sapiens, HT-29, 72 h): 9.25; pIC50 [4, 10]: 7.92; pIC50 [5]: 8.67; pIC50 ([3]; Homo sapiens, JeKo-1, 72 h): 9.47 |
| C=C[C@@H](O)C(=O)N[C@H]1CCc2c(C)c(F)cc3nc4c(c1c23)Cn1c-4cc2c(c1=O)COC(=O)[C@]2(O)CC [Example 2 (1-7-B)] | 8.26 | 7.29 |  |  | pIC50 [3, 9]: 9.18 |
| C=C[C@H](O)C(=O)N[C@H]1CCc2c(C)c(F)cc3nc4c(c1c23)Cn1c-4cc2c(c1=O)COC(=O)[C@]2(O)CC [Example 2 (1-7-A)] | 8.57 | 7.94 |  |  | pIC50 [3, 9]: 9.82 |
| CC[C@@]1(O)C(=O)OCc2c1cc1n(c2=O)Cc2c-1nc1cc(F)c(C3CC3)c3c1c2[C@@H](NC(=O)CO)CC3 [Example 19 (5-22-A), N-((1S,9S)-4-cyclopropyl-9-ethyl-5-fluoro-9-hydroxy-10,13-dioxo-1,2,3,9,10,12,13,15-tetrahydrobenzo[de]pyrano[3′,4′:6,7]indolizino[1,2-b]quinolin-1-yl)-2-hydroxyacetamide] | 8.47 | 7.52 | 8.13 | 8.59 |  |
| CC[C@@]1(O)C(=O)OCc2c1cc1n(c2=O)Cc2c-1nc1cc(Cl)c(C)c3c1c2[C@@H](NC[C@@H](C)O)CC3 [Example 24 (2-27-A), (2R)—N-((1S,9S)-5-Chloro-9-ethyl-9-hydroxy-4-methyl-10,13-dioxo-2,3,9,10,13,15-hexahydro-1H,12H-benzo[de]pyrano[3′,4:6,7]indolizino[1,2-b]quinolin-1-yl)-2-hydroxypropylamine] | 8.08 | 7.25 | 7.93 | 8.34 |  |
| CC[C@@]1(O)C(=O)OCc2c1cc1n(c2=O)Cc2c-1nc1cc(F)c(Cl)c3c1c2C(NC(=O)C(O)C1CC1)CC3 (single isomer, unassigned) [Example 16 (3-12-A)] |  |  | 9.33 |  | pIC50 ([2]; read-out: IC50, inhibitory activity on NCI-N87 cell proliferation, NCI-N87 human gastric cancer cells, 72 h incubation, Cell Counting-Lite 2.0): 9.36; pIC50 [4, 10]: 7.81; pIC50 ([7]; read-out: IC50, inhibitory activity on HCC1806 cell proliferation, HCC1806 human breast squamous carcinoma cells, 72 h incubation, Cell Counting-Lite 2.0): 9.80 |
| CC[C@@]1(O)C(=O)OCc2c1cc1n(c2=O)Cc2c-1nc1cc(F)c(C)c3c1c2[C@@H](CN)CC3 (single isomer, unassigned) [Example 13 (5-7-A)] |  |  |  |  | pIC50 ([1]; Homo sapiens, HT-29, 72 h): 8.50; pIC50 [2, 13]: 8.22; pIC50 ([3]; Homo sapiens, JeKo-1, 72 h): 9.80 |
| CC[C@@]1(O)C(=O)OCc2c1cc1n(c2=O)Cc2c-1nc1cc(F)c(Cl)c3c1c2[C@H](NC(=O)C1(O)CC1)CC3 [Example 18 (3-17-B)] | 8.38 | 7.43 | 8.21 | 8.65 |  |
| CC[C@@]1(O)C(=O)OCc2c1cc1n(c2=O)Cc2c-1nc1cc(F)c(Cl)c3c1c2[C@H](NC[C@H](C)O)CC3 (single isomer, unassigned) [Example 17 (3-7-B)] |  |  |  |  | pIC50 [2, 13]: 8.34; pIC50 [4, 10]: 7.65; pIC50 ([6]; Homo sapiens, MDA-MB-453, 72 h): 8.31; pIC50 ([7]; Homo sapiens, HCC1806, 72 h, read-out: IC50, inhibitory activity on HCC1806 cell proliferation, HCC1806 human breast squamous carcinoma cells, 72 h incubation, Cell Counting-Lite 2.0): 8.71 |
| CC[C@@]1(O)C(=O)OCc2c1cc1n(c2=O)Cc2c-1nc1cc(F)c(C3CC3)c3c1c2[C@H](NC(=O)CO)CC3 [Example 19 (5-22-B), N-((1R,9S)-4-cyclopropyl-9-ethyl-5-fluoro-9-hydroxy-10,13-dioxo-1,2,3,9,10,12,13,15-tetrahydrobenzo[de]pyrano[3′,4′:6,7]indolizino[1,2-b]quinolin-1-yl)-2-hydroxyacetamide] | 8.26 | 7.21 | 8.25 | 8.43 |  |

Source: US20250346606A1, “CAMPTOTHECIN COMPOUND, PREPARATION METHOD THEREFOR, AND APPLICATION THEREOF” (SICHUAN KELUN-BIOTECH BIOPHARMACEUTICAL CO., LTD., priority 2021, published 2025)
